In this test the target is Nav1.6 (Homo sapiens, UniProt Q9UQD0). Put plainly: Nav two-pulse protocol, IonWorks Quattro electrophysiology. To be noted: -120 mV to 0 mV, compound incubated 300 s. It is filed as cell-based. On the procedure: Compound Plate Preparation
Supplied compounds were sent as Assay Ready Plates, with 2 μL per well of compound in DMSO at 300× the final assay concentrations as described above and in the project proposal. All assay plates are stored at in a −80° C. freezer.
On the day of the assay, 198 μL of external solution was added to the appropriate assay plate and mixed thoroughly. This provided a 1:100 dilution. A further 1:3 dilution occurred upon addition to the cells in the IonWorks, giving a 1:300 dilution in total.
On each assay plate, at least 8 wells were reserved for vehicle control (0.3% DMSO) and at least 8 wells for each positive control specific to the cell line tested. The positive controls were tested in an 8-point dose response with 3-fold dilutions to determine an IC50 value for each run. The positive control compounds are outlined below.
Ion Channel Positive Control & Concentrations
Nav1.6/1.2 Lidocaine: 8, 3-fold dilutions starting at 100 μM
Electrophysiological Recording Solutions
The solutions for recording currents were are follows:
Amphotericin B was used to obtain electrical access to the cell interior at a final concentration of 200 μg/ml in internal recording solution.
Experimental Protocols & Data Analysis
Nav currents were evoked by stepping from a holding potential of −120 mV to 0 mV for 2.5 s (pulse 1), followed by a 5 ms inter-pulse interval, and stepping from a holding potential of −120 mV to 0 mV for 20 ms (pulse 2). The voltage protocol was applied (Pre), compounds added, incubated for 300 seconds, and the voltage protocol was applied a final time (Post) on the IonWorks Quattro.
The parameters measured were the maximum inward current evoked on stepping to 0 mV from the 1st and 2nd pulse. All data were filtered for seal quality, seal drop, and current amplitude. The peak current amplitude (Peak) was calculated before (Pre) and after (Post) compound addition to the amount of block was assessed by dividing the Post-compound current amplitude by the Pre-compound current amplitude. These procedures were implemented for the 1st and 2nd pulse.

Structures can show the parent of a compound that is named as a salt. Where two headings read alike, the source gives them in different places.

Sequence of Nav1.6 (Q9UQD0 whole entry): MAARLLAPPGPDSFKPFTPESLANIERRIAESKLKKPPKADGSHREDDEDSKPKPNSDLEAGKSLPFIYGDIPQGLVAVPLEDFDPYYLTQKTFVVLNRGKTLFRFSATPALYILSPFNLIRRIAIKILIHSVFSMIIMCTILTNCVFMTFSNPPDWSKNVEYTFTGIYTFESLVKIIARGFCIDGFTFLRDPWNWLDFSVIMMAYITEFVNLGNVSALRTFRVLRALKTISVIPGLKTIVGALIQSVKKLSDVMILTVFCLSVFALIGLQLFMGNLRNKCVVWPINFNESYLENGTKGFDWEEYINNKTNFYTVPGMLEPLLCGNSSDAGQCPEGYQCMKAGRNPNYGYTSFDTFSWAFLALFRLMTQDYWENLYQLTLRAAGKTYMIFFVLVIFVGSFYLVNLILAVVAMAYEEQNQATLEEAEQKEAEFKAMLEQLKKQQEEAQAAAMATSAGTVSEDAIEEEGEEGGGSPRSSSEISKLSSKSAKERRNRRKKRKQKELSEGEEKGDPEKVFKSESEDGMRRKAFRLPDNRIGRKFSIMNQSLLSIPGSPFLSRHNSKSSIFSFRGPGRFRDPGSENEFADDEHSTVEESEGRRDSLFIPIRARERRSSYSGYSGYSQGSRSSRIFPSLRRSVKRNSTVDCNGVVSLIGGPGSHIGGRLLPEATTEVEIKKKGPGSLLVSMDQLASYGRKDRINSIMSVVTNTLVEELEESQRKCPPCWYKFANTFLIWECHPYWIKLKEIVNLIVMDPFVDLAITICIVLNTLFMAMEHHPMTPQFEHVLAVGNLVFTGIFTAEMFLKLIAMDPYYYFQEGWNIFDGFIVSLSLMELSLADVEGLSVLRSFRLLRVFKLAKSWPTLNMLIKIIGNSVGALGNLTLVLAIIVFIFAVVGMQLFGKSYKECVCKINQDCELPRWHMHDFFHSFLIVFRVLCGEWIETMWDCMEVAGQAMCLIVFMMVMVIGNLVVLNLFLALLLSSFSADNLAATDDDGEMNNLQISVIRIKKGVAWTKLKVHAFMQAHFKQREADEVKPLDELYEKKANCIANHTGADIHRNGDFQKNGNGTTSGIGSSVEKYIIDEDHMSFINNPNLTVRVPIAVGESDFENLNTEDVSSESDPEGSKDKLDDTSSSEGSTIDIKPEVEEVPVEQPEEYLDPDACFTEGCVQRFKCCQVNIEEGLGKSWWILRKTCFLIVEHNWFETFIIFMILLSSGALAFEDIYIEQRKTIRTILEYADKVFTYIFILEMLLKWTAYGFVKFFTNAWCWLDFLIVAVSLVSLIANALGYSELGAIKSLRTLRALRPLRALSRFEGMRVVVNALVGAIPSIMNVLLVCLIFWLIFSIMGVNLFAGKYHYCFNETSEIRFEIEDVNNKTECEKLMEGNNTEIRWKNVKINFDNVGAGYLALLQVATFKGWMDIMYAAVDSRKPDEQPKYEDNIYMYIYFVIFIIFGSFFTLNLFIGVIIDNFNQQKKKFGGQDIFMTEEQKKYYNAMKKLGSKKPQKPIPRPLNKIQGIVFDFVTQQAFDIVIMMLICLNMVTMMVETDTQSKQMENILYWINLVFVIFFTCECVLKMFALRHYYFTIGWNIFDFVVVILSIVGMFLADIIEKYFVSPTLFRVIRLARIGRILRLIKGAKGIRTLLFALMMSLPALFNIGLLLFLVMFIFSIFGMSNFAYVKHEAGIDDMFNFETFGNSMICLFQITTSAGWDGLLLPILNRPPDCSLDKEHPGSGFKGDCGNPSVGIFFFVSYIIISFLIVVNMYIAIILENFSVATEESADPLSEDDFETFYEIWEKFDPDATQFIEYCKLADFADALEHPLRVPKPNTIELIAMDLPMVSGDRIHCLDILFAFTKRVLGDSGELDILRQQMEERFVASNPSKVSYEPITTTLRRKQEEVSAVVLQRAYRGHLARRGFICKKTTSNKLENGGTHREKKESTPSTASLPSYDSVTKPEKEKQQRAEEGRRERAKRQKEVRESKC

In the case of `CC(C)COc1cccc(CN2CCC(n3cc(-c4ccccn4)nn3)C2)c1` (stereo not drawn) [Compound 60, 2-{1-[1-(3-Isobutoxy-benzyl)-pyrrolidin-3-yl]-1H-[1,2,3]triazol-4-yl}-pyridine], the IC50 (read-out: Nav1.6 Tonic) was over 20 µM and the IC50 (read-out: Nav1.6 inac) was in the range of 1 to 5 µM.
In the case of `CC1(C(=O)NCc2ccccn2)CCN(Cc2cnc(-c3ccccc3)s2)C1` (stereo not drawn) [Compound 102, 3-Methyl-1-(2-phenyl-thiazol-5-ylmethyl)-pyrrolidine-3-carboxylic acid (pyridin-2-ylmethyl)-amide], the IC50 is, setting by setting: (read-out: Nav1.6 Tonic) over 20 µM; (read-out: Nav1.6 inac) 1 to 5 µM.
For `CC1(C(=O)N2CCNCC2)CCN(Cc2cccc(Oc3ccccc3)c2)C1` (stereo not drawn) [Compound 39, [3-Methyl-1-(3-phenoxy-benzyl)-pyrrolidin-3-yl]-piperazin-1-yl-methanone], in that order: over 20 µM and 1 to 5 µM.
Turning to `Cc1cc(C)nc(CNC(=O)C2CCN(Cc3cccc(S(=O)(=O)N4CCCC4)c3)C2)c1` (stereo not drawn) [Compound 111, 1-[3-(Pyrrolidine-1-sulfonyl)-benzyl]-pyrrolidine-3-carboxylic acid (4,6-dimethyl-pyridin-2-ylmethyl)-amide hydrochloride], the IC50 is over 20 µM (read-out: Nav1.6 Tonic) and 1 to 5 µM (read-out: Nav1.6 inac).
Consider `O=C(C1CN(Cc2cccc(Oc3ccccc3)c2)CCO1)N1CCOCC1` (stereo not drawn) [Compound 106, Morpholin-4-yl-[4-(3-phenoxy-benzyl)-morpholin-2-yl]-methanone], for which the IC50 by setting is: (read-out: Nav1.6 Tonic) over 20 µM; (read-out: Nav1.6 inac) over 5 µM.
With `O=C(NCc1ccccn1)C1CCN(Cc2cccc(Oc3cccc(C(F)(F)F)c3)c2)C1` (stereo not drawn) [Compound 5, 1-[3-(3-Trifluoromethyl-phenoxy)-benzyl]-pyrrolidine-3-carboxylic acid (pyridin-2-ylmethyl)-amide], the IC50 (read-out: Nav1.6 Tonic) was over 20 µM and the IC50 (read-out: Nav1.6 inac) was under 1 µM.
For `O=C(NCc1ccc(Cl)cc1)C1CCN(Cc2cccc(Oc3ccccc3)c2)C1` (stereo not drawn) [Compound 68, 1-(3-Phenoxy-benzyl)-pyrrolidine-3-carboxylic acid 4-chloro-benzylamide], in that order: 10 to 20 µM and 1 to 5 µM.
`O=C(NCc1ccccc1F)C1CCN(Cc2cccc(Oc3ccccc3)c2)C1` (stereo not drawn) [Compound 73, 1-(3-Phenoxy-benzyl)-pyrrolidine-3-carboxylic acid 2-fluoro-benzylamide]: the IC50 is 10 to 20 µM (read-out: Nav1.6 Tonic) and 1 to 5 µM (read-out: Nav1.6 inac).
The matching figures for `CC1(C(=O)NCc2ccccn2)CCN(Cc2cccc(Oc3ncccn3)c2)C1` (stereo not drawn) [Compound 27, 3-Methyl-1-[3-(pyrimidin-2-yloxy)-benzyl]-pyrolidine-3-carboxylic acid (pyridin-2-ylmethyl)-amide]: over 20 µM and over 5 µM.
For the molecule `O=C(NCc1ccccn1)C1(O)CCN(Cc2cccc(Oc3ccccc3)c2)C1=O` (stereo not drawn) [Compound 94, 3-Hydroxy-2-oxo-1-(3-phenoxy-benzyl)-pyrrolidine-3-carboxylic acid (pyridin-2-ylmethyl)-amide], the IC50 reads like this: (read-out: Nav1.6 Tonic) over 20 µM; (read-out: Nav1.6 inac) 1 to 5 µM.
For `Cc1ccc(Oc2cccc(CN3CCC(C(=O)NCc4ccccn4)C3)c2)cc1C` (stereo not drawn) [Compound 10, 1-[3-(3,4-Dimethyl-phenoxy)-benzyl]-pyrrolidine-3-carboxylic acid (pyridin-2-ylmethyl)-amide], in that order: 10 to 20 µM and 1 to 5 µM.
`O=C(NCc1ccccn1)C1CCN(Cc2cccc(Oc3ccc(F)cc3)n2)C1` (stereo not drawn) [Compound 20, 1-[6-(4-Fluoro-phenoxy)-pyridin-2-ylmethyl]-pyrrolidine-3-carboxylic acid (pyridin-2-ylmethyl)-amide]: the IC50 (read-out: Nav1.6 Tonic) is over 20 µM and the IC50 (read-out: Nav1.6 inac) was over 5 µM.
On to `O=C(NCc1ncccc1F)C1CCN(Cc2cccc(OCC(F)(F)F)c2)C1` (stereo not drawn) [Compound 98, 1-[3-(2,2,2-Trifluoro-ethoxy)-benzyl]-pyrrolidine-3-carboxylic acid (3-fluoro-pyridin-2-ylmethyl)-amide], for which the IC50 runs as follows: (read-out: Nav1.6 Tonic) over 20 µM; (read-out: Nav1.6 inac) over 5 µM.
As for `O=C(NCc1ccccn1)C1CCN(Cc2cccc(Oc3ccc(F)c(F)c3)c2)C1` (stereo not drawn) [Compound 3, 1-[3-(3,4-Difluoro-phenoxy)-benzyl]-pyrrolidine-3-carboxylic acid (pyridin-2-ylmethyl)-amide], the IC50 is over 20 µM (read-out: Nav1.6 Tonic) and 1 to 5 µM (read-out: Nav1.6 inac).
For the molecule `COc1ccc(Oc2cccc(CN3CCC(C(=O)NCc4ccccn4)C3)c2)cc1` (stereo not drawn) [Compound 6, 1-[3-(4-Methoxy-phenoxy)-benzyl]-pyrrolidine-3-carboxylic acid (pyridin-2-ylmethyl)-amide], the IC50 reads like this: (read-out: Nav1.6 Tonic) over 20 µM; (read-out: Nav1.6 inac) over 5 µM.
Consider `CCNC(=O)C1(C)CCN(Cc2cccc(OC(F)(F)F)c2)C1` (stereo not drawn) [Compound 41, 3-Methyl-1-(3-trifluoromethoxy-benzyl)-pyrrolidine-3-carboxylic acid ethylamide], for which the IC50 is 10 to 20 µM (read-out: Nav1.6 Tonic) and under 1 µM (read-out: Nav1.6 inac).
Regarding `CC1(C)Cc2cc(CN3CCC(C(=O)NCc4ccccn4)C3)ccc2O1` (stereo not drawn) [Compound 32, 1-(2,2-Dimethyl-2,3-dihydro-benzofuran-5-ylmethyl)-pyrrolidine-3-carboxylic acid (pyridin-2-ylmethyl)-amide], the IC50 is over 20 µM (read-out: Nav1.6 Tonic) and 1 to 5 µM (read-out: Nav1.6 inac).
For the molecule `Cc1ccc(CNC(=O)C2CCN(Cc3cccc(Oc4ccccc4)c3)C2)cc1` (stereo not drawn) [Compound 83, 1-(3-Phenoxy-benzyl)-pyrrolidine-3-carboxylic acid 4-methyl-benzylamide], the IC50 runs as follows: (read-out: Nav1.6 Tonic) over 20 µM; (read-out: Nav1.6 inac) 1 to 5 µM.
Consider `CC(C)OCc1cccc(CN2CCC(CNC(=O)c3ccccn3)C2)c1` (stereo not drawn) [Compound 36, Pyridine-2-carboxylic acid [1-(3-isopropoxymethyl-benzyl)-pyrrolidin-3-ylmethyl]-amide], for which the IC50 was over 20 µM (read-out: Nav1.6 Tonic) and under 1 µM (read-out: Nav1.6 inac).
With `Cc1ccc(CNC(=O)C2CCN(Cc3cccc(OCC(F)(F)F)c3)C2)nc1` (stereo not drawn) [Compound 97, 1-[3-(2,2,2-Trifluoro-ethoxy)-benzyl]-pyrrolidine-3-carboxylic acid (5-methyl-pyridin-2-ylmethyl)-amide], the IC50 was over 20 µM (read-out: Nav1.6 Tonic) and over 5 µM (read-out: Nav1.6 inac).
On to `COc1ccnc(-c2nc(C3CCN(Cc4cccc(OCC(C)C)c4)C3)no2)c1` (stereo not drawn) [Compound 52, 2-{3-[1-(3-Isobutoxy-benzyl)-pyrrolidin-3-yl]-[1,2,4]oxadiazol-5-yl}-4-methoxy-pyridine], for which the IC50 runs as follows: (read-out: Nav1.6 Tonic) over 20 µM; (read-out: Nav1.6 inac) 1 to 5 µM.
On to `CC1(C(=O)NCc2ccccn2)CCCN(Cc2cccc(Oc3ccccc3)c2)C1=O` (stereo not drawn) [Compound 110, 3-Methyl-2-oxo-1-(3-phenoxy-benzyl)-piperidine-3-carboxylic acid (pyridin-2-ylmethyl)-amide], for which the IC50 is, setting by setting: (read-out: Nav1.6 Tonic) 10 to 20 µM; (read-out: Nav1.6 inac) under 1 µM.
Take `O=C(NCc1ccccn1)C1CCN(Cc2cccc(Oc3cccc(F)c3)c2)C1` (stereo not drawn) [Compound 11, 1-[3-(3-Fluoro-phenoxy)-benzyl]-pyrrolidine-3-carboxylic acid (pyridin-2-ylmethyl)-amide]: the IC50 (read-out: Nav1.6 Tonic) fell in the range of 10 to 20 µM and the IC50 (read-out: Nav1.6 inac) is under 1 µM.
For the molecule `COc1ccc(Oc2cccc(CN3CCC(C(=O)NCc4ccccn4)C3)n2)cc1` (stereo not drawn) [Compound 19, 1-[6-(4-Methoxy-phenoxy)-pyridin-2-ylmethyl]-pyrrolidine-3-carboxylic acid (pyridin-2-ylmethyl)-amide], the IC50 reads like this: (read-out: Nav1.6 Tonic) over 20 µM; (read-out: Nav1.6 inac) 1 to 5 µM.
